One block for each compound: values may come before it.
Columns and labels:
[1] = target: Phosphatidylinositol 4,5-bisphosphate 3-kinase catalytic subunit alpha isoform (Homo sapiens, UniProt P42336); assay: Inhibition of PI3Kalpha in human U2OS cells assessed as inhibition of AKT Ser 473 phosphorylation by Western blot; assay type: cell-based
[2] = target: PI3-kinase p110-alpha/p85-alpha (Homo sapiens, UniProt P42336); assay: Inhibition of human PI3Kalpha (p110alpha/p85alpha) by ADP accumulation based HTRF assay; assay type: protein-complex assay; details: for Ki: read-out: Ki(app)
PI3K p110 beta/p85 alpha = PI3K p110 beta/p85 alpha (Homo sapiens, UniProt P42338); assay: Inhibition of human PI3Kbeta (p110beta/p85alpha) by ADP accumulation based HTRF assay; assay type: protein-complex assay; details: read-out: Ki(app)
[3] = target: PI3-kinase p110-delta/p85-alpha (Homo sapiens, UniProt O00329); assay: Inhibition of human PI3Kdelta (p110delta/p85alpha) by ADP accumulation based HTRF assay; assay type: protein-complex assay; details: read-out: Ki(app)
[4] = target: Phosphatidylinositol 4,5-bisphosphate 3-kinase catalytic subunit gamma isoform (Homo sapiens, UniProt P48736); assay: Inhibition of human PI3Kgamma by ADP accumulation based HTRF assay; details: read-out: Ki(app)
[5] = Stability in human liver microsomes at 1 uM incubated for 15 mins; assay type: ADME, Microsome; details: read-out: Stability
[6] = Stability in mouse liver microsomes at 1 uM incubated for 15 mins; assay type: ADME, Microsome; details: read-out: Stability
CYP1A2 = target: T1, CYP1A2 (Homo sapiens, UniProt P05177); assay: Inhibition of CYP1A2 at 10 uM; assay type: ADME
T1 sequence (P05177 whole entry): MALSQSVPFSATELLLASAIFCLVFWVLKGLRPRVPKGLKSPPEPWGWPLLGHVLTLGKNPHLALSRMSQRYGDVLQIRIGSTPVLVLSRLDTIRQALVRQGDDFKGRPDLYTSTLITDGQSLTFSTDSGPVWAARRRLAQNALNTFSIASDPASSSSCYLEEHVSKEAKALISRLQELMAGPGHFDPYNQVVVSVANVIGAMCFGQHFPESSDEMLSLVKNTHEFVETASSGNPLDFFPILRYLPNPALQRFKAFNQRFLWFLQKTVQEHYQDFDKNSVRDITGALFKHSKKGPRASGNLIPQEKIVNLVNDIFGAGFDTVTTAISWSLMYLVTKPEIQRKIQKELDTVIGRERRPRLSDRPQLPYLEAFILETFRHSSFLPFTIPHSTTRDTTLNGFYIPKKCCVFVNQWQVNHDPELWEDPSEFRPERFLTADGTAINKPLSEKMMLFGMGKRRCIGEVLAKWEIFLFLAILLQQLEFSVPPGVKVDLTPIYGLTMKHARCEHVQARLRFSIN

CYP2C9 = CYP2C9 (Homo sapiens, UniProt P11712); assay: Inhibition of CYP2C9 at 10 uM; assay type: ADME
CYP2C19 = CYP2C19 (Homo sapiens, UniProt P33261); assay: Inhibition of CYP2C19 at 10 uM; assay type: ADME
CYP2D6 = CYP2D6 (Homo sapiens, UniProt P10635); assay: Inhibition of CYP2D6 at 10 uM; assay type: ADME
CYP3A4 = CYP3A4 (Homo sapiens, UniProt P08684); assay: Inhibition of CYP3A4 at 10 uM; assay type: ADME

PI3-kinase p110-alpha/p85-alpha, sequence (P27986 whole entry): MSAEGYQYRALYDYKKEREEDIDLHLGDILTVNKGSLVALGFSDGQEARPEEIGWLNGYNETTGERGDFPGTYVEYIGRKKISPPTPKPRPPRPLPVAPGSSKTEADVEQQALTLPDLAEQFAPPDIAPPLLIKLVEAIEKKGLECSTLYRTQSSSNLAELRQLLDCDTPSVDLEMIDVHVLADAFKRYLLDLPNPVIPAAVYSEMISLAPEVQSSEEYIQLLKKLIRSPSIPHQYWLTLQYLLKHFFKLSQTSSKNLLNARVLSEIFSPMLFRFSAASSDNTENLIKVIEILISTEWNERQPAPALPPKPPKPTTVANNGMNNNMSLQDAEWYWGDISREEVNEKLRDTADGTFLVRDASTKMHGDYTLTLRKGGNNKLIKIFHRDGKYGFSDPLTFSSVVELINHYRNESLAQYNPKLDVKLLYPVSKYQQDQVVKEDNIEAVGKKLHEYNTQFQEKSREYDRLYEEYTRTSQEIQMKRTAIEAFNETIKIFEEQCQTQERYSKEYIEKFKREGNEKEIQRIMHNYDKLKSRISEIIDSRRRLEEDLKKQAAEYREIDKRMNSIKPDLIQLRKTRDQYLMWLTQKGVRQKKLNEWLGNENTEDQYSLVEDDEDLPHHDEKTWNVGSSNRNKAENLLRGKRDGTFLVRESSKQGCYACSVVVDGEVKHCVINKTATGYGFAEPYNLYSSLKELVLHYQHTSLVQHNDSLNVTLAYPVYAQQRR
PI3-kinase p110-alpha/p85-alpha, sequence (P42336 whole entry): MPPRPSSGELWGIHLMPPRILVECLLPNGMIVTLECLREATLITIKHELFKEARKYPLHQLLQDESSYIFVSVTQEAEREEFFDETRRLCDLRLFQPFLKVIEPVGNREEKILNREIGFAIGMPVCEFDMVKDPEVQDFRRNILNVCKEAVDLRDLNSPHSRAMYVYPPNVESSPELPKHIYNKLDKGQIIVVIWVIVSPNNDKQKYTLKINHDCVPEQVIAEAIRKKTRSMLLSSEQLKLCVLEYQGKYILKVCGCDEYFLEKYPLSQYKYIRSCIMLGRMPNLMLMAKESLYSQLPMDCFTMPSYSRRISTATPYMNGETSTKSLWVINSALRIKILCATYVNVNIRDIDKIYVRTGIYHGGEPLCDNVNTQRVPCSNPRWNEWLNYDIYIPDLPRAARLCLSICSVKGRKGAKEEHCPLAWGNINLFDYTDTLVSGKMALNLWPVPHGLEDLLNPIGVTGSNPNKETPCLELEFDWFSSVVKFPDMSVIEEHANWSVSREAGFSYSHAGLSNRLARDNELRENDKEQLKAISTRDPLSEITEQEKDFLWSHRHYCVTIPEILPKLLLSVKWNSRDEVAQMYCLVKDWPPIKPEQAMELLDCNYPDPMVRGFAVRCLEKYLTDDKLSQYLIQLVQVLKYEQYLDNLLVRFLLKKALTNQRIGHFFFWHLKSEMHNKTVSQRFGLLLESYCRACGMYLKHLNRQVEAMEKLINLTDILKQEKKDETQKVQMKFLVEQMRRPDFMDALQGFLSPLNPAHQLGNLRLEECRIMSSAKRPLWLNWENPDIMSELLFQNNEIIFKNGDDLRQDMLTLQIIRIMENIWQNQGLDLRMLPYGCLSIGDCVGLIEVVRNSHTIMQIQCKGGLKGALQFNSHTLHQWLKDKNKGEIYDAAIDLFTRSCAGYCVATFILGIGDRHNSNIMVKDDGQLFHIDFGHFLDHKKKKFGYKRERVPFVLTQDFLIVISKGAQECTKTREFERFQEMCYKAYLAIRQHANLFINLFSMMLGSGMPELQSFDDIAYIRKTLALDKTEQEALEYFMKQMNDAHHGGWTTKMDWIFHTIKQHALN
Phosphatidylinositol 4,5-bisphosphate 3-kinase catalytic subunit alpha isoform, sequence (P42336 whole entry, canonical isoform): as the sequence (P42336 whole entry) above
Phosphatidylinositol 4,5-bisphosphate 3-kinase catalytic subunit gamma isoform, sequence (P48736 whole entry, canonical isoform): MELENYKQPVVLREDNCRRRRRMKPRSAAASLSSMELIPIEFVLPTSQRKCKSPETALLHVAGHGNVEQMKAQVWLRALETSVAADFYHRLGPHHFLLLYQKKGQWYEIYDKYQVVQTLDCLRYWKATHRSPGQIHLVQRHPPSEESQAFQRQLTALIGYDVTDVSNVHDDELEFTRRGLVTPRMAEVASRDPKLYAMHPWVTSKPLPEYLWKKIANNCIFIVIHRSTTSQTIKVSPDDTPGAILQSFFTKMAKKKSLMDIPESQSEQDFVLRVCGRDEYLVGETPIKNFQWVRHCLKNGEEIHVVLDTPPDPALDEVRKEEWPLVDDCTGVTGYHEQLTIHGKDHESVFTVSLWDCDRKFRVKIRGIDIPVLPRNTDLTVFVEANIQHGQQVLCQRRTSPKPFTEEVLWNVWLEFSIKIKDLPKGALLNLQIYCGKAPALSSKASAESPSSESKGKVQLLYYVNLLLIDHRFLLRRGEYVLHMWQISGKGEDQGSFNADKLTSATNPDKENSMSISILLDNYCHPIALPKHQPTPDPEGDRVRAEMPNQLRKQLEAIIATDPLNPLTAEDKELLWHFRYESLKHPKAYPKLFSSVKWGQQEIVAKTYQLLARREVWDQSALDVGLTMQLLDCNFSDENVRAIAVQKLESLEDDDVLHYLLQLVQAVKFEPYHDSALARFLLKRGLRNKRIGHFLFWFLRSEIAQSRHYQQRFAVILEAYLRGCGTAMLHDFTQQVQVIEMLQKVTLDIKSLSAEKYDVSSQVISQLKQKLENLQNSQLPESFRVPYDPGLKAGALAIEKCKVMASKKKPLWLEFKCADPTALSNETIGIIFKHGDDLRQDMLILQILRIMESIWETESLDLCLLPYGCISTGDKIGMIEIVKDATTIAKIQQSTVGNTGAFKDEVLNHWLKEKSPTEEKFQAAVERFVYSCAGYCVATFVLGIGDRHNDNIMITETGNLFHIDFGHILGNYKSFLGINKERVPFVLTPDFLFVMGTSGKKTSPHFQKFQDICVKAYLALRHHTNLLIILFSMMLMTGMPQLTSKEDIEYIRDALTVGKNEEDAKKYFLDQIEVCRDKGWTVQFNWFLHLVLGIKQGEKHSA
PI3K p110 beta/p85 alpha, sequence (P27986 whole entry): as the sequence (P27986 whole entry) above
PI3K p110 beta/p85 alpha, sequence (P42338 whole entry): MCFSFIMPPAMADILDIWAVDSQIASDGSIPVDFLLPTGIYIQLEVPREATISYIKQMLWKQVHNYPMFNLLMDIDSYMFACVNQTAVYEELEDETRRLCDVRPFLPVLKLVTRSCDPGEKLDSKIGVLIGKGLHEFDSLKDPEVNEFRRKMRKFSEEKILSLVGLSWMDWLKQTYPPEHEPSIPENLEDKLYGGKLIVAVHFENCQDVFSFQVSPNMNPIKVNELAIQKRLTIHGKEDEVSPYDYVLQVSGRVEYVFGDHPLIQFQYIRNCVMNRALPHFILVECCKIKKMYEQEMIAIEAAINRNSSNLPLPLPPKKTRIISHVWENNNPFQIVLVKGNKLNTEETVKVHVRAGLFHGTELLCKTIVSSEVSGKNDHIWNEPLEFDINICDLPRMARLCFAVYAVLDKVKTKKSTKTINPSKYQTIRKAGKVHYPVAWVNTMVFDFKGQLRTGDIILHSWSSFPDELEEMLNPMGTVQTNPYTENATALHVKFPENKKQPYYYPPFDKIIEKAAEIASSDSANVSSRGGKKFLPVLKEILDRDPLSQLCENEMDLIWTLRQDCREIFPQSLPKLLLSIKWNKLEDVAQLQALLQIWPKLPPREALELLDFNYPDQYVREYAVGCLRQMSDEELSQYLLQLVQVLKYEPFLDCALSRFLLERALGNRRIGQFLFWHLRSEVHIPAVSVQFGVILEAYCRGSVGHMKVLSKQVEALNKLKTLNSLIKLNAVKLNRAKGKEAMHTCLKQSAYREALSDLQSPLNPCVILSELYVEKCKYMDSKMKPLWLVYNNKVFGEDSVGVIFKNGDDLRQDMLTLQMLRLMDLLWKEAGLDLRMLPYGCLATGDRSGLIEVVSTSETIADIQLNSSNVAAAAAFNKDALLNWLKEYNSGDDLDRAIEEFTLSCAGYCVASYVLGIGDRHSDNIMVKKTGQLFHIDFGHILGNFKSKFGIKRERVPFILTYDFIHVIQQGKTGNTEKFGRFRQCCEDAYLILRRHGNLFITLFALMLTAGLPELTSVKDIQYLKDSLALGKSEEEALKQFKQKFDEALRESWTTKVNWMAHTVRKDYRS
CYP2D6, sequence (P10635 whole entry): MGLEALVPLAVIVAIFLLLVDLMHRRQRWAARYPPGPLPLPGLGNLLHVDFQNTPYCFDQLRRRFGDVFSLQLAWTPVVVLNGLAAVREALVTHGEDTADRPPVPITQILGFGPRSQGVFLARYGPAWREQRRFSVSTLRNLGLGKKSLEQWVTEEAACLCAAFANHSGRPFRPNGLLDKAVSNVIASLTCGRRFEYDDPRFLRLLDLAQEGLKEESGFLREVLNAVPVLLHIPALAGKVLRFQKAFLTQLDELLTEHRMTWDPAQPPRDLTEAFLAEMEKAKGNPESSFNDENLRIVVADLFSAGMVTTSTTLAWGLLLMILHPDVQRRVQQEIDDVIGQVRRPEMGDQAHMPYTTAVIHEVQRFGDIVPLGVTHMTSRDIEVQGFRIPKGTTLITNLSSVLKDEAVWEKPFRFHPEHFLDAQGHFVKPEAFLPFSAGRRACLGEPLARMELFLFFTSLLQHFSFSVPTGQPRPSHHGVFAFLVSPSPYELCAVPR
CYP2C19, sequence (P33261 whole entry): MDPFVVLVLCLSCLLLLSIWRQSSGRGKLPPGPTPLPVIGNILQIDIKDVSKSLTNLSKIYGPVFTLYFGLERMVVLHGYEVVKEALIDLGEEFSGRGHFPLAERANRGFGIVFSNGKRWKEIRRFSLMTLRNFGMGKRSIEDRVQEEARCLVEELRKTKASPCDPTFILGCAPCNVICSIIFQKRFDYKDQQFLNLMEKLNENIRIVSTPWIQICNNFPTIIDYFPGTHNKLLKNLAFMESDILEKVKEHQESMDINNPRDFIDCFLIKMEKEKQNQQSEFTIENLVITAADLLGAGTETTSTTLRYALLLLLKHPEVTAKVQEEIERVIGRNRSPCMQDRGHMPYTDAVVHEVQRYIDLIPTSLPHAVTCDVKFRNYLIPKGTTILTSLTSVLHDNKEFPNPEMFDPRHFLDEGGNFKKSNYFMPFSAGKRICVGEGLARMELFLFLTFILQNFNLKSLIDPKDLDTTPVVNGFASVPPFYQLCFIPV

SMILES: CS(=O)(=O)N1CCN(Cc2cn3c(Cl)c(-c4cnc5[nH]ccc5c4)nc(N4CCOCC4)c3n2)CC1
IC50 [2]: 166 nM

SMILES: Cc1ncc(-c2nc(N3CCOCC3)c3nc(CN4CCN(S(C)(=O)=O)CC4)cn3c2Cl)cn1
IC50 [2]: 21.6 nM

SMILES: Cc1nc(N)ncc1-c1nc(N2CCOCC2)c2nc(CN3CCN(S(C)(=O)=O)CC3)cn2c1Cl
IC50 [2]: 13 nM

SMILES: CS(=O)(=O)N1CCN(Cc2cn3cc(-c4cnc(N)c(C#N)c4)nc(N4CCOCC4)c3n2)CC1
IC50 [2]: 1010 nM

SMILES: C[C@@H]1CN(Cc2cn3cc(-c4cnc(N)nc4)nc(N4CCOCC4)c3n2)CCN1S(C)(=O)=O
IC50 [2]: 2.6 nM

SMILES: CS(=O)(=O)N1C2CCC1CN(Cc1cn3cc(-c4cnc(N)nc4)nc(N4CCOCC4)c3n1)C2
IC50 [2]: 108 nM

SMILES: CS(=O)(=O)N1CCN(Cc2cn3cc(-c4cncnc4)nc(N4CCOCC4)c3n2)CC1
IC50 [2]: 123 nM

SMILES: CS(=O)(=O)N1CC2CN(Cc3cn4cc(-c5cnc(N)nc5)nc(N5CCOCC5)c4n3)CC2C1 (centres undefined)
IC50 [2]: 117 nM

SMILES: CS(=O)(=O)N1CCN(Cc2cn3cc(-c4cnc(N)nc4C(F)(F)F)nc(N4CCOCC4)c3n2)CC1
IC50 [1]: 10.2 nM
IC50 [2]: 6.8 nM
Ki [2]: 7.4 nM
remaining at 0.25 h, 1 µM [5]: 82%
remaining at 0.25 h, 1 µM [6]: 96%
inhibition at 10 µM (CYP1A2): < 30%
inhibition at 10 µM (CYP2C9): < 30%
inhibition at 10 µM (CYP2C19): < 30%
inhibition at 10 µM (CYP2D6): < 30%
inhibition at 10 µM (CYP3A4): < 30%
Ki (PI3K p110 beta/p85 alpha): 79.8 nM
Ki [3]: 5.06 nM
Ki [4]: 26.7 nM

SMILES: CNc1ncc(-c2cn3cc(CN4CCN(S(C)(=O)=O)CC4)nc3c(N3CCOCC3)n2)cn1
IC50 [2]: 16.4 nM

Second part, the compound after the results:

IC50 [1]: 480 nM
SMILES: CN(C)CC(=O)N1CCN(Cc2cn3cc(-c4cnc(N)nc4)nc(N4CCOCC4)c3n2)CC1

IC50 [1]: 120 nM
IC50 [2]: 5.5 nM
Ki [2]: 6.2 nM
Ki (PI3K p110 beta/p85 alpha): 319 nM
Ki [3]: 14.7 nM
Ki [4]: 124 nM
SMILES: C[C@H]1CN(Cc2cn3cc(-c4cnc(N)nc4)nc(N4CCOCC4)c3n2)CCN1S(C)(=O)=O

IC50 [2]: 1110 nM
SMILES: COc1cncc(-c2cn3cc(CN4CCN(S(C)(=O)=O)CC4)nc3c(N3CCOCC3)n2)c1

IC50 [2]: 34.6 nM
SMILES: C[C@H](O)C(=O)N1CCN(Cc2cn3cc(-c4cnc(N)nc4)nc(N4CCOCC4)c3n2)CC1

IC50 [2]: 6.8 nM
SMILES: CS(=O)(=O)N1CCN(Cc2cn3c(Cl)c(-c4cnc(N)nc4C(F)(F)F)nc(N4CCOCC4)c3n2)CC1

IC50 [2]: 160 nM
SMILES: COc1ncc(-c2cn3cc(CN4CCN(S(C)(=O)=O)CC4)nc3c(N3CCOCC3)n2)cn1

IC50 [1]: 244 nM
IC50 [2]: 3.2 nM
SMILES: C[C@@H]1CN(S(C)(=O)=O)C[C@H](C)N1Cc1cn2cc(-c3cnc(N)nc3)nc(N3CCOCC3)c2n1

IC50 [2]: 28.7 nM
SMILES: CS(=O)(=O)C1CCN(Cc2cn3cc(-c4cnc(N)nc4)nc(N4CCOCC4)c3n2)CC1

IC50 [2]: > 10000 nM
SMILES: CS(=O)(=O)N1CCN(Cc2cn3cc(-c4ccc5[nH]ccc5c4)nc(N4CCOCC4)c3n2)CC1

IC50 [2]: > 10000 nM
SMILES: CS(=O)(=O)N1CCN(Cc2cn3cc(-c4ccc5[nH]ncc5c4)nc(N4CCOCC4)c3n2)CC1

IC50 [1]: 98.5 nM
IC50 [2]: 13.3 nM
remaining at 0.25 h, 1 µM [5]: 98%
remaining at 0.25 h, 1 µM [6]: 64%
inhibition at 10 µM (CYP1A2): < 30%
inhibition at 10 µM (CYP2C9): < 30%
inhibition at 10 µM (CYP2C19): < 30%
inhibition at 10 µM (CYP2D6): < 30%
inhibition at 10 µM (CYP3A4): < 30%
SMILES: CCS(=O)(=O)N1CCN(Cc2cn3cc(-c4cnc(N)nc4)nc(N4CCOCC4)c3n2)CC1

IC50 [2]: 2500 nM
SMILES: CS(=O)(=O)N1CCN(Cc2cn3cc(-c4cccc5[nH]ccc45)nc(N4CCOCC4)c3n2)CC1

IC50 [2]: 11.4 nM
SMILES: CNc1ncc(-c2nc(N3CCOCC3)c3nc(CN4CCN(S(C)(=O)=O)CC4)cn3c2Cl)cn1

From ChEMBL document CHEMBL2086238, “Identification of ETP-46321, a potent and orally bioavailable PI3K α, δ inhibitor” (Bioorg Med Chem Lett, 2012)
